Measurements: ChEMBL document CHEMBL4251716, “Miuramides A and B, Trisoxazole Macrolides from a Mycale sp. Marine Sponge That Induce a Protrusion Phenotype in Cultured Mammalian Cells” (J Nat Prod, 2018)
Active and inactive are the calls of the source. The rule behind the calls is not given here.

Columns and labels:
Assay type in all cases: functional, cell-based
3Y1 cell line [1] = experiment: Induction of morphological changes in rat 3Y1 cells assessed as protrusions in cell membrane at 1.9 uM measured after 5 mins to 48 hrs by IncuCyte live cell imaging method
3Y1 cell line [2] = experiment: Induction of morphological changes in rat 3Y1 cells assessed as protrusions in cell membrane at 0.05 uM measured after 5 mins to 48 hrs by IncuCyte live cell imaging method
3Y1 cell line [3] = experiment: Induction of morphological changes in rat 3Y1 cells assessed as protrusions in cell membrane at 41 uM measured after 5 mins to 48 hrs by IncuCyte live cell imaging method
3Y1 cell line [4] = experiment: Induction of morphological changes in rat 3Y1 cells assessed as protrusions in cell membrane at 2.7 uM measured after 5 mins to 48 hrs by IncuCyte live cell imaging method
3Y1 cell line [5] = experiment: Induction of morphological changes in rat 3Y1 cells assessed as protrusions in cell membrane at 4.2 uM measured after 5 mins by IncuCyte live cell imaging method
3Y1 cell line [6] = experiment: Cytotoxicity against rat 3Y1 cells after 72 hrs by MTT assay; settings: 3Y1, 72 h

Compound: C/C1=C/C(=O)O[C@@H]2C[C@@H](CC[C@H](C)/C=C\C=C\CC1)O[C@@](O)([C@@H]1CSC(=O)N1)C2
- Activity (3Y1 cell line [1]): Active

Compound: CO[C@H]1C[C@H](CC[C@H](C)[C@H](O)[C@H](C)[C@H]2OC(=O)/C(C)=C/C[C@H](O)C[C@@H]3C=CC[C@@H](C[C@H](OC)[C@@H](C)[C@@H](O)C[C@@H](O)[C@H](C)[C@@H]([C@@H](C)[C@@H](O)[C@@H](C)CC[C@H]4C[C@H](OC)C[C@H](C)O4)OC(=O)/C(C)=C/C[C@H](O)C[C@@H]4C=CC[C@@H](C[C@H](OC)[C@@H](C)[C@@H](O)C[C@@H](O)[C@@H]2C)O4)O3)O[C@@H](C)C1
- Activity (3Y1 cell line [2]): Active

Compound: C=C1[C@@H](C)[C@H]2[C@H](Cc3ccccc3)NC(=O)[C@]23OC(=O)/C=C/[C@@H](O)CCC[C@@H](C)C/C=C/[C@H]3[C@@H]1O
- Activity (3Y1 cell line [3]): Active

Compound: COC[C@@H](OC)C(=O)O[C@H](CC[C@H](C)[C@H](C[C@@H]1OC(=O)C[C@@H](O)C/C=C/C(=O)[C@H](C)[C@H](OC)c2coc(n2)-c2coc(n2)-c2coc(n2)/C=C/C[C@H](OC)[C@H]1C)OC)[C@H](C)[C@H](OC(C)=O)[C@H](C)/C=C/N(C)C=O
- Activity (3Y1 cell line [4]): Active

Compound: CO[C@@H]([C@@H](C)[C@@H](CC[C@H](C)[C@H](C[C@@H]1OC(=O)C[C@@H](O)C/C=C/C(=O)[C@H](C)[C@H](OC)c2coc(n2)-c2coc(n2)-c2coc(n2)/C=C/C[C@H](OC)[C@H]1C)OC)OC(=O)[C@@H](C)OC)[C@H](C)/C=C/N(C)C=O
- Activity (3Y1 cell line [5]): Active
- IC50 (3Y1 cell line [6]): 7 nM

Compound: CO[C@H]([C@H](C)/C=C/N(C)C=O)[C@@H](C)C(=O)CC[C@H](C)[C@H](C[C@@H]1OC(=O)C[C@@H](O)C/C=C/C(=O)[C@H](C)[C@H](OC)c2coc(n2)-c2coc(n2)-c2coc(n2)/C=C/C[C@H](OC)[C@H]1C)OC
- IC50 (3Y1 cell line [6]): 7 nM
